Assay results published in patent publication US20050288264A2, “Dosage Regimen and Pharmaceutical Composition for Emergency Contraception” (priority 2001, published 2005).
Where two headings read alike, the source gives them in different places.

Format: in vivo, women
Procedure: The efficacy of the regimen according to this invention was compared with the known regimen administering 0.75-0.75 mg of levonorgestrel 12 hours apart in the following trials.
In a double-blind, randomized, multicentre, multinational trial 1,356 women received 0.75-0.75 mg of levonorgestrel at 12-hour interval in the traditional way, while 1,356 received in a single dose 1.5 ± 0.2 mg of levonorgestrel within 72 hours of the unprotected coitus.
The incidence of vomiting was 1.4% in both groups. As the new regimen also has the advantageous properties resulting from the lack of the estrogen component, the incidence of nausea, feeling of sickness, vomiting was apparently low.
The incidence of menstrual disorders was not increased either by the single administration of 1.5 mg dose of levonorgestrel compared to the administration of two 0.75 mg doses. The incidence of menstrual disorders was 30.9% in both groups.

C#C[C@]1(O)CC[C@H]2[C@@H]3CCC4=CC(=O)CC[C@@H]4[C@H]3CC[C@@]21CC [levonorgestrel]
Prevented fraction (percent of conception which otherwise might happen prevented by the treatment) (0.75-0.75 mg at 12-hour interval (traditional way)): 77.3%
conception rate (0.75-0.75 mg at 12-hour interval (traditional way), within 72 hours of unprotected coitus, 1,356 women): 1.77%
incidence of other side-effects (diarrhoea, fatigue, dizziness, headache, breast tenderness, lower abdominal pain) (in vivo): not differing significantly
Prevented fraction (percent of conception which otherwise might happen prevented by the treatment) (single dose 1.5 ± 0.2 mg): 81.9%
conception rate (single dose 1.5 ± 0.2 mg within 72 hours of unprotected coitus, 1,356 women): 1.47%
